Source: US9290476B2, “Methylene linked quinolinyl modulators of RORγt” (Janssen Pharmaceutica NV, priority 2012, dated 2016)
“And” between values parts separate entries of the source, which are not always exact repeats. Equal values may be shown once. Where a name gives a salt, the structure may show the parent alone. Read-outs that look alike come from different tables or passages of the source.

Experiments:
human RORγt LBD = human RORγt LBD (Homo sapiens (Human), UniProt P51449); assay: RORγt reporter assay (GAL4-RORγt LBD luciferase in HEK293T cells); type: cell-based; details: for IC50 / RORγt reporter Assay, % inhibition @ 6 μM: HEK293T cells; for IC50: 24 hours compound treatment; for inhibition at 6 µM: HEK-293T, read-out: RORγt reporter Assay, % inhibition @ 6 μM, HEK293T cells, 6 μM
Sequence of human RORγt LBD (P51449 258-518): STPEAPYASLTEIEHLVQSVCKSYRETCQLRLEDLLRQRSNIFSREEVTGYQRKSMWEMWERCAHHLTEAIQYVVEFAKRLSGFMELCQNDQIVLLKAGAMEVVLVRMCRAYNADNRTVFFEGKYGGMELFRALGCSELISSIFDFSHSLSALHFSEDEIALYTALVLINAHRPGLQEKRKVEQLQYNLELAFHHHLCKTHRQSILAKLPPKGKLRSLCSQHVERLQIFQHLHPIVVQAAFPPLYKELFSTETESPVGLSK
How it was run: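 HEK293T cells transiently co-transfected with GAL4-DBD–wild-type human RORγt LBD (pBIND) and GAL4-responsive firefly luciferase reporter (pGL4.31); renilla luciferase from pBIND normalises transfection/viability. Cells in phenol-red-free DMEM, 5% lipid-reduced FCS, treated with compound 24 h. Firefly/renilla ratio plotted against compound concentration.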

[1] = molecular target: human RORγt ligand binding domain (RORγt LBD) (Homo sapiens (Human), UniProt P51449); assay: RORγt ThermoFluor assay (thermal shift binding affinity); details: estimated from thermal shift
Sequence of human RORγt ligand binding domain (RORγt LBD) (P51449 other isoform, or with tags, fused parts or gaps): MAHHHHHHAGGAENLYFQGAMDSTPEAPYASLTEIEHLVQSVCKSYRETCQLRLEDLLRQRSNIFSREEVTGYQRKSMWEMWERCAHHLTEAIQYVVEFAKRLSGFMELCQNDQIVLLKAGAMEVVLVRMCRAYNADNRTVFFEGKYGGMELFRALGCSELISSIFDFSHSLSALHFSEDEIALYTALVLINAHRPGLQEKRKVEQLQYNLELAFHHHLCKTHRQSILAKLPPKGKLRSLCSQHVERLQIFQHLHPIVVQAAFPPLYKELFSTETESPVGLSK
How it was run: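 Thermal shift used 0.065 mg/mL RORγt LBD with 60 μM 1,8-ANS in 100 mM Hepes pH 7.0, 10 mM NaCl, 2.5 mM GSH and 0.002% Tween-20, heated at 1 °C/min. Fluorescence was excited at 380–400 nm and emission read at 500 nm.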

[2] = tested on: IL-17 production by CD4 T cells; assay: Human Th17 assay (IL-17 production by CD4 T cells under Th17 differentiation); type: cell-based; details: human CD4+ T cells, IL-17 after 3 days, read-out: Human Th17 Assay, IC50 μM
Description: The human Th17 assay tests the effect of RORγt modulatory compounds on IL-17 production by CD4 T cells under conditions which favor Th17 differentiation.
Total CD4^+ T cells were isolated from the peripheral blood mononuclear cells (PBMC) of healthy donors using a CD4^+ T cell isolation kit II, following the manufacturer's instructions (Miltenyi Biotec). Cells were resuspended in a medium of RPMI-1640 supplemented with 10% fetal bovine serum, penicillin, streptomycin, glutamate, and β-mercaptoethanol and were added to 96-well plates at 1.5×10^5 per 100 μL per well. 50 μL of compound at titrated concentrations in DMSO were added into each well at final DMSO concentration at 0.2%. Cells were incubated for 1 hour, then 50 μL of Th17 cell differentiation medium was added to each well. The final concentrations of antibodies and cytokines (R&D Systems) in differentiation medium were: 3×10^6/mL anti-CD3/CD28 beads (prepared using human T cell activation/expansion kit, Miltenyi Biotec), 10 μg/mL anti-IL4, 10 μg/mL anti-IFNγ, 10 ng/mL IL1β, 10 ng/mL IL23, 50 ng/mL IL6, 3 ng/mL TGFβ and 20 U/mL IL2. Cells were cultured at 37° C. and 5% CO2 for 3 days. Supernatants were collected and the accumulated IL-17 in culture was measured by using MULTI-SPOT® Cytokine Plate following manufacture's instruction (Meso Scale Discovery). The plate was read using Sector Imager 6000, and IL-17 concentration was extrapolated from the standard curve. The IC50s were determined by GraphPad.

Row | IC50 (human RORγt LBD) | inhibition at 6 µM (human RORγt LBD) [%] | Kd [1] [nM] | IC50 [2] [µM] | RORγt reporter Assay, % inhibition @ 6 μM (human RORγt LBD) [%] | IC50 ([2]; Homo sapiens, CD4+ T, 72 h) [µM] | SMILES
1 | 0.13 µM | 102 | 93 | 0.19 | – | – | COc1nc2c(C)cc(C(O)(c3ccc(C(F)(F)F)nc3)c3cncn3C)cc2c(Cl)c1Cc1ccc(-n2cccn2)cc1 (single isomer, unassigned) [Example 29B, (3-(4-(1H-pyrazol-1-yl)benzyl)-4-chloro-2-methoxy-8-methylquinolin-6-yl)(1-methyl-1H-imidazol-5-yl)(6-(trifluoromethyl)pyridin-3-yl)methanol]
2 | 0.18 µM | – | 150 | – | 90 | 0.14 | CCN(CC)c1nc2ccc(C(O)(c3ccc(Cl)cc3)c3cncn3C)cc2c(Cl)c1Cc1ccc(-n2cccn2)cc1 (single isomer, unassigned) [Example 75C, (3-(4-(1H-Pyrazol-1-yl)benzyl)-4-chloro-2-(diethylamino)quinolin-6-yl)(4-chlorophenyl)(1-methyl-1H-imidazol-5-yl)methanol]
3 | 0.068 µM | 103 | 43 | – | – | 0.079 | CS(=O)(=O)c1ccc(Cc2c(Cl)nc3ccc(C(O)(c4cccnc4)c4cccc(Cl)c4)cc3c2Cl)cc1 (centres unmarked) [Example 8, (3-Chlorophenyl)(2,4-dichloro-3-(4-(methylsulfonyl)benzyl)quinolin-6-yl)(pyridin-3-yl)methanol.TFA]
4 | 0.029 µM | – | 7.9 | 0.04 | 101 | – | Cc1cc(C(O)(c2ccc(C#N)cc2)c2cncn2C)cc2c(C#N)c(Cc3ccc(-n4cccn4)cc3)c(C#N)nc12 (single isomer, unassigned) [Example 66C, 3-(4-(1H-pyrazol-1-yl)benzyl)-6-((4-cyanophenyl)(hydroxy)(1-methyl-1H-imidazol-5-yl)methyl)-8-methylquinoline-2,4-dicarbonitrile]
5 | 0.42 µM | 95 | 270 | 1.1 | – | – | Cc1cc(C(O)(c2ccc(C#N)cc2)c2cncn2C)cc2c(C#N)c(Cc3ccc(-n4cccn4)cc3)c(C#N)nc12 (single isomer, unassigned) [Example 66B, 3-(4-(1H-pyrazol-1-yl)benzyl)-6-((4-cyanophenyl)(hydroxy)(1-methyl-1H-imidazol-5-yl)methyl)-8-methylquinoline-2,4-dicarbonitrile]
6 | 0.13 µM | 101 | 140 | 0.22 | – | – | Cc1cc(C(O)(c2ccc(C(F)(F)F)nc2)c2cncn2C)cc2c(C#N)c(Cc3ccc(-n4cccn4)cc3)c(C#N)nc12 (single isomer, unassigned) [Example 65B, 3-(4-(1H-pyrazol-1-yl)benzyl)-6-(hydroxy(1-methyl-1H-imidazol-5-yl)(6-(trifluoromethyl)pyridin-3-yl)methyl)-8-methylquinoline-2,4-dicarbonitrile]
7 | 0.1 µM | – | 11 | – | 101 | 0.066 | COc1nc2ccc(C(O)(c3ccc(Cl)cc3)c3cncn3C)cc2c(Cl)c1Cc1cc2ccccc2s1 (single isomer, unassigned) [Example 36C, (3-(benzo[b]thiophen-2-ylmethyl)-4-chloro-2-methoxyquinolin-6-yl)(4-chlorophenyl)(1-methyl-1H-imidazol-5-yl)methanol]
8 | 0.025 µM | 98 | 2.2 | – | – | 0.063 | Cn1cncc1C(O)(c1ccc2nc(Cl)c(Cc3ccc(-n4cccn4)cc3)c(Cl)c2c1)c1cncn1C [Example 30, (3-(4-(1H-Pyrazol-1-yl)benzyl)-2,4-dichloroquinolin-6-yl)bis(1-methyl-1H-imidazol-5-yl)methanol.TFA]
9 | 0.0042 µM | 100 | 1.4 | – | – | 0.0014 | COc1nc2ccc(C(O)(c3cnnn3C)C3CN(C(C)=O)C3)cc2c(Cl)c1Cc1ccc(C(F)(F)F)cc1 (racemic) [Example 97A, 1-(3-((4-Chloro-2-methoxy-3-(4-(trifluoromethyl)benzyl)quinolin-6-yl)(hydroxy)(1-methyl-1H-1,2,3-triazol-5-yl)methyl)azetidin-1-yl)ethanone]
10 | 0.011 µM | 105 | 1.6 | 0.011 | – | – | Cn1cncc1C(O)(c1ccc(Cl)cc1)c1ccc2nc(C#N)c(Cc3ccc(-n4cccn4)cc3)c(C#N)c2c1 (single isomer, unassigned) [Example 71B, 3-(4-(1H-Pyrazol-1-yl)benzyl)-6-((4-chlorophenyl)(hydroxy)(1-methyl-1H-imidazol-5-yl)methyl)quinoline-2,4-dicarbonitrile]
11 | 0.098 µM | – | 23 | – | 93 | 0.057 | COc1nc2ccc(C(O)(c3ccc(F)cc3)c3cncn3C)cc2c(Cl)c1Cc1ccc(S(C)(=O)=O)cc1 (single isomer, unassigned) [Example 54C, (4-chloro-2-methoxy-3-(4-(methylsulfonyl)benzyl)quinolin-6-yl)(4-fluorophenyl)(1-methyl-1H-imidazol-5-yl)methanol]
12 | 0.038 µM | 104 | 6.6 | – | – | 0.054 | CCOc1nc2ccc(C(O)(c3cncs3)c3cncn3C)cc2c(Cl)c1Cc1ccc(-n2cccn2)cc1 (centres unmarked) [Example 16, (3-(4-(1H-Pyrazol-1-yl)benzyl)-4-chloro-2-ethoxyquinolin-6-yl)(1-methyl-1H-imidazol-5-yl)(thiazol-5-yl)methanol.TFA]
13 | 0.057 µM | 117 | 11 | – | – | 0.066 | OC(c1cccnc1)(c1cccc(Cl)c1)c1ccc2nc(Cl)c(Cc3ccc(-n4cccn4)cc3)c(Cl)c2c1 (centres unmarked) [Example 5, (3-(4-(1H-Pyrazol-1-yl)benzyl)-2,4-dichloroquinolin-6-yl)(3-chlorophenyl)(pyridin-3-yl)methanol.TFA]
14 | 0.087 µM | – | 5.8 | – | 97 | 0.066 | COc1nc2c(C)cc(C(O)(c3ccc(Cl)cc3)c3cncn3C)cc2c(Cl)c1Cc1ccc(-n2cccn2)cc1 (single isomer, unassigned) [Example 28C, (3-(4-(1H-pyrazol-1-yl)benzyl)-4-chloro-2-methoxy-8-methylquinolin-6-yl)(4-chlorophenyl)(1-methyl-1H-imidazol-5-yl)methanol]
15 | – | – | 0.12 | 0.002 | 103 | – | COc1nc2ccc(C(O)(c3cnnn3C)c3cnc(C)n3C)cc2c(C#N)c1Cc1ccc(C(F)(F)F)cc1 (single isomer, unassigned) [Example 81C, 6-((1,2-Dimethyl-1H-imidazol-5-yl)(hydroxy)(1-methyl-1H-1,2,3-triazol-5-yl)methyl)-2-methoxy-3-(4-(trifluoromethyl)benzyl)quinoline-4-carbonitrile]
16 | 0.0025 µM | 94 | 0.024 | – | – | 0.0015 | COc1nc2ccc(C(O)(c3sc(C)nc3C)c3cnnn3C)cc2c(Cl)c1Cc1ccc(C(F)(F)F)cc1 (centres unmarked) [Example 79C, (4-Chloro-2-methoxy-3-(4-(trifluoromethyl)benzyl)quinolin-6-yl)(2,4-dimethylthiazol-5-yl)(1-methyl-1H-1,2,3-triazol-5-yl)methanol]

Row | SMILES | IC50 (human RORγt LBD) | inhibition at 6 µM (human RORγt LBD) [%] | Kd [1] [nM] | IC50 [2] [µM] | RORγt reporter Assay, % inhibition @ 6 μM (human RORγt LBD) [%] | IC50 ([2]; Homo sapiens, CD4+ T, 72 h) [µM]
17 | COc1nc2ccc(C(O)(c3ccccc3)C3CCN(C(C)=O)CC3)cc2c(Cl)c1Cc1ccc(-n2cccn2)cc1 (single isomer, unassigned) [Example 83B, 1-(4-((3-(4-(1H-Pyrazol-1-yl)benzyl)-4-chloro-2-methoxyquinolin-6-yl)(hydroxy)(phenyl)methyl)piperidin-1-yl)ethanone] | 0.024 µM and ~0.07 µM | 100 | 4.7 | 0.016 | – | –
18 | COc1nc2ccc(C(O)(c3ccccc3)C3CCN(C(C)=O)CC3)cc2c(Cl)c1Cc1ccc(-n2cccn2)cc1 (single isomer, unassigned) [Example 83C, 1-(4-((3-(4-(1H-Pyrazol-1-yl)benzyl)-4-chloro-2-methoxyquinolin-6-yl)(hydroxy)(phenyl)methyl)piperidin-1-yl)ethanone] | 0.14 µM | – | 77 | 0.12 | 103 | –
